System: wild-type N2 C. elegans
Description: The synchronized L1-stage nematodes were diluted to 20 to 30 nematodes/10 μL. The L1-stage C. elegans was collected in the S broth and cultured in a 96-well plate (365 μL/well). 165 μL of medium, 20 μL of different concentrations of CTX treatment groups, 10 μL of L1-stage nematodes, and 5 μL of OP50 were added in sequence into the 96-well plate, and the nematodes were cultured in a biological incubator at 20° C. for 72 h, where each concentration was set with 10 groups in parallel.
The CTX was set up in three exposure groups from low to high, with concentrations being 500 μg/mL, 1 mg/mL, and 2 mg/mL. At the same time, a blank control was set up.
The nematodes treated with different concentrations of drugs were transferred to NGM, and only one nematode was placed on each medium. The one nematode was picked to a new medium every day with a worm picker. After nematodes produced by this one nematode on the old medium grew to adults, the number of nematodes on the NGM plates with different concentrations of CTX was counted until this one nematode no longer lay eggs. A sum of the number of nematodes exchanged every day was the number of eggs laid and hatched in a whole reproductive cycle of the nematode, and the reproductive capacity of the nematode was determined based on this.
L1-stage C. elegans was obtained according to the protocol in Example 1, and was treated with the CTX at a concentration of 1 mg/mL according to Example 1. Effect of treatment time on the reproductive capacity of the C. elegans was investigated.
Nematodes in L1 to L4 stages were used to construct models and the rest of the steps were conducted according to the method in Example 1.
At 20° C. a blank control group and a CTX treatment group were given pure OP50 bacterial solution and 1 mg/mL CTX/OP50 bacterial solution, respectively. Food were supplemented every 24 h, and whether the nematodes survived normally was observed. After treated in S broth for 72 h, the nematodes in the blank group and the CTX treatment group were transferred to NGM with food OP50, and one nematode was placed on each medium. The one nematode was picked to a new medium every day with a worm picker After nematodes produced by this one nematode on the old medium grew to adults, the number of nematodes on NGM plates of the blank group and the CTX treatment group was counted until this one nematode no longer lay eggs.

O=P1(N(CCCl)CCCl)NCCCO1 (centres unmarked) [CTX, cyclophosphamide] was tested, and the “reproductive capacity of C. elegans as a function of CTX concentration” value (500 μg/mL to 2 mg/mL, L1-stage, S broth, 72 h) was “decreased with the increase of concentration”, the “total number of reproduced C. elegans compared with the control” value (CTX 1 mg/mL, 48 h to 96 h treatment) was “significantly reduced” and the “reduction of reproductive capacity (total number of nematodes reproduced) compared with blank control group” value (CTX 1 mg/mL, L1-stage nematodes, S broth, 20° C., 72 h) was 50%. For the same compound, the “total reproduced C. elegans” value (CTX 1 mg/mL, treated for 72 h) was “reduced to the minimum” and the fecundity of nematodes (drug treatment at different larval stages L1 to L4) was “significantly reduce the fecundity”.
